Article PMC5515859, “Metabolism of F18, a Derivative of Calanolide A, in Human Liver Microsomes and Cytosol” (Frontiers in Pharmacology, 2017)

Assays:
[1] = Pharmacokinetics in rats after oral administration of F18; type: in vivo, Sprague-Dawley rats; settings: oral F18 50 mg/kg; for Cmax / Tmax / half-life / MRT last / MRT inf: Sprague-Dawley; for Cmax / Tmax / half-life / MRT last / MRT inf / AUC0−∞ / Systemic exposure relative to that of the parent drug: rat blood; for Cmax / Tmax / half-life / MRT last / MRT inf / AUC0−∞: mean ± SD, n = 5; for MRT last: read-out: MRT0−t; for MRT inf: read-out: MRT0−∞; for Systemic exposure relative to that of the parent drug: from AUC0−∞
Description: To investigate the pharmacokinetic characteristics of F18 and its major metabolites, five rats were intragastrically administered F18 at a dose of 50 mg/kg. Blood samples were collected in heparinized ice-bath tubes from the suborbital veniplex at 0, 0.25, 0.5, 1, 2, 4, 6, 8, 12, 16, and 24 h postdose. The blood concentrations of F18 and its major metabolites were determined by LC-MS/MS and their pharmacokinetic parameters were calculated through non-compartmental analysis using WinNonlin Version 6.1 (Pharsight, Mountain View, CA, USA).
For the blood samples, F18, M1, M3-1, and M3-2 were simultaneously quantified using the following elution gradient: Solvent B was maintained at 15% for 2 min, increased to 85% in 1 min, maintained at 85% for 5 min, decreased to 15% in 0.5 min and maintained at 15% for 4.5 min. Detection was also performed using a Finnigan TSQ Quantum MS instrument with an electrospray ionization probe operated in the positive mode.
Calibration curves for F18 and its metabolites were fitted via linearly weighted (1/x^2) least-squares regression. The correlation coefficient values of F18 and its metabolites in the incubations were >0.99 for the range 10–5,000 nM; the LOQ was 10 nM with a signal-to-noise ratio >10:1; the accuracies were 90–113% and the precisions (RSD) were <10.5%. In the blood samples, the correlation coefficient values for F18, M1, M3-1, and M3-2 were >0.99 for the range 5–2,000 nM; the LOQ was 5 nM with the signal-to-noise ratio >10:1; the accuracies were 91–112% and the precisions (RSD) were <9.6%. In addition, no interference was found in the retention time of each analyte in both the incubated samples and the blood samples.

human liver cytosol = assay: Incubation of F18 with human liver cytosol, metabolite profiling; type: in vitro ADME; set-up: key: +: Metabolite detected; −: metabolite not detected; settings: F18 50 μM, 1 h
Description: (§1) A stock solution of F18 (5 mM) was prepared in methanol. F18 (50 μM) was incubated with RLMs/DLMs/MLMs/HLMs and HLcy (0.5 mg protein/mL) in 50 mM Tris-HCl buffer containing 5 mM MgCl2 (pH 7.4) in a final volume of 200 μL. The final concentration of methanol in the incubation system was 1% (v/v). After 3 min of preincubation at 37°C, the reactions were initiated by the addition of NADPH-regenerating system (10-mM β-NADP, 100-mM 6-G-P and 10-U/mL 6-G-P-DH) or NADH. After incubation for 1 h, the reactions were terminated by the addition of two volumes of ice-cold acetonitrile. Samples without NADPH or NADH were included as controls. The incubation mixture was vortexed and centrifuged at 13,300 × g for 5 min. A 10 μL aliquot of the supernatant was injected into an LC-tandem mass spectrometer (LC-MS/MS) for analysis.
(§2) Metabolic profiling studies were performed with a Finnigan TSQ Quantum MS instrument with an electrospray ionization probe and a Finnigan SURVEYOR HPLC system (Thermo Finnigan, San Jose, CA, USA). HPLC was performed with a Zorbax SB-C18 column (2.1 × 100 mm, 3.5 μm, Agilent Corporation, CA, USA) with a column temperature of 35°C and a flow rate of 200 μL/min. F18 and its metabolites were eluted using a linear gradient method with a mobile phase consisting of solvent A (water with 0.1% formic acid) and solvent B (acetonitrile with 0.1% formic acid). […] The samples were analyzed in the positive-ionization mode, and the TSQ capillary temperature was set to 350°C. Nitrogen was used as both the sheath gas and the auxiliary gas and was delivered at 30 psi and 15 psi, respectively. The spray voltage and tube lens were set to 3,800 V and 123 V, respectively. The full-width half maximum (FWHM) was set to 0.7. MS data were acquired in the selective ion-recording mode or by collecting full scans from 200 to 600 m/z at 1 scan/s. The mass spectrometer and HPLC system were operated using Xcalibur 2.0.7 software.

human liver microsomes = assay: Incubation of F18 with human liver microsomes, metabolite profiling by LC-MS/MS; type: in vitro ADME; set-up: key: +: Metabolite detected; −: metabolite not detected; settings: F18 50 μM, 1 h
Description: as §1, §2

recombinant FMO3 = molecular target: T1, recombinant FMO3 (Homo sapiens, UniProt P31513); assay: Metabolism of F18 by cDNA-expressed FMO3; type: in vitro ADME; settings: F18 10 μM, 50 pmol/mL enzyme, 1 h
T1 construct: purchased BD Gentest (Woburn, MA, USA)
T1 sequence (P31513 1-532): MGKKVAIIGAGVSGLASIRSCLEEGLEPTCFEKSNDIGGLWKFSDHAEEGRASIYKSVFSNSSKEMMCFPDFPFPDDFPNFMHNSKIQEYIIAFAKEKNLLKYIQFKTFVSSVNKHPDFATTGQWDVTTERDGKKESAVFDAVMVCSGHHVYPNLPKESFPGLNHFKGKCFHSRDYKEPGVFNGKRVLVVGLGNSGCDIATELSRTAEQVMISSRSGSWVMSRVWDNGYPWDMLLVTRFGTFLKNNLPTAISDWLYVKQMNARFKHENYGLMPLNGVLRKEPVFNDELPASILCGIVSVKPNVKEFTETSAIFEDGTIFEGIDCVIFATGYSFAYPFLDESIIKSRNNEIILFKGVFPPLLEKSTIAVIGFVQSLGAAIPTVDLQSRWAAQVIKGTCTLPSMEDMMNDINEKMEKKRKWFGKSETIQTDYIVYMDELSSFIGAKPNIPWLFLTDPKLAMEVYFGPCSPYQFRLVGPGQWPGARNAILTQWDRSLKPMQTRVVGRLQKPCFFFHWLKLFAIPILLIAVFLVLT
Description: To further verify the roles of CYPs and FMOs in the metabolism of F18 in humans, F18 (10 μM) was incubated individually with 14 cDNA-expressed human CYP isozymes (50-pmol/mL CYP1A1, CYP1A2, CYP2A6, CYP2B6, CYP2C8, CYP2C9, CYP2C19, CYP2D6, CYP2E1, CYP2J2, CYP3A4, CYP4F2, CYP4F3, and CYP4A11) and three cDNA-expressed FMO enzymes (50-pmol/mL FMO1, FMO3, and FMO5). The incubation conditions were similar to those used for HLMs (described above), with the exception of the incubating time […]. Samples incubated without NADPH were used as the negative control.

dog liver microsomes = assay: Incubation of F18 with dog liver microsomes, metabolite profiling; type: in vitro ADME, beagle dog; set-up: key: +: Metabolite detected; −: metabolite not detected; settings: F18 50 μM, 1 h
Description: as §1, §2

VSV-G/HIV-1 viruses = assay: microbe, parasite or virus in culture; type: cell-based; settings: for IC50: Human immunodeficiency virus 1, HEK-293T, 48 h, read-out: IC50, inhibition of HIV-1 replication
monkey liver microsomes = assay: Incubation of F18 with monkey liver microsomes, metabolite profiling; type: in vitro ADME; set-up: key: +: Metabolite detected; −: metabolite not detected; settings: F18 50 μM, 1 h
Description: as §1, §2

SMILES	Cmax [1] [nM]	Tmax [1] [h]	half-life [1] [h]	MRT last [1] [h]	MRT inf [1] [h]	Concentration in rat blood (in words) [1]	AUC0−∞ [1]	Systemic exposure relative to that of the parent drug [1] [%]	F18 metabolite detected in HLcy with NADH (human liver cytosol)	F18 metabolite detected in HLcy with NADPH (human liver cytosol)	F18 metabolite detected in HLM (human liver microsomes)	Metabolite detected in incubation with recombinant FMO3 (recombinant FMO3)	F18 metabolite detected in DLM (dog liver microsomes)	IC50 (VSV-G/HIV-1 viruses) [nM]	F18 metabolite detected in MLM (monkey liver microsomes)	Potency against HIV-1 relative to the parent compound (VSV-G/HIV-1 viruses)
CCCc1cc(=O)oc2c3c(c4c(c12)OC(C)(C)C=C4)O[C@H](CCl)C[C@H]3O (relative stereo) [Metabolite M3-1, trans-12-hydroxy F18]	165 ± 50.9	4 ± 2.3	3.4 ± 0.64	8.6 ± 0.6	8.9 ± 0.7	detected in high concentrations	1,965 h^*nM	~38	+	+	+	detected	+	34	+	
CCCc1cc(=O)oc2c3c(c4c(c12)OC(C)(C)C=C4)O[C@H](CCl)C[C@@H]3O (relative stereo) [Metabolite M3-2, cis-12-hydroxy F18]	219 ± 51.2	4 ± 2.3	3 ± 0.4	8.8 ± 1.2	13.2 ± 7.2	detected in high concentrations	3,353 h^*nM	~65	+	+	+	detected	+	51	+	
CCCc1cc(=O)oc2c3c(c4c(c12)OC(C)(C)C=C4)OC(CO)CC3=O (centres unmarked) [Metabolite M1]	274 ± 111	4 ± 1.6	4.8 ± 2.1	8.4 ± 0.5	9.4 ± 1.5	detected in high concentrations	3,290 h^*nM		−	−	+	not detected	+		+	one fifth
